pEC50: −log10 of the molar value.

Assay [1] deals with primary human T-cells. Description: Proliferation assay (5 days, CellTiter-Glo, CD3-stimulated T-cells). Type of assay: cell-based. The conditions noted are these: for Emax proliferation (% activation): CD3 condition, normalised to DMSO (neutral) and 20 μM reference compound A1 = 100%; for pEC50: Homo sapiens, T-cell, 120 h, CD3-stimulated primary human T-cells, 5 days, CellTiter-Glo, fitted sigmoidal curve, read-out: Tcell Proliferation CD3 EC50. Put shortly:
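Proliferation read-out: ATP luminescence (CellTiter-Glo 2.0) at day 5 in expanded primary human T-cells on CD3 antibody-coated plates, with PBS-only plates as a counter screen. Compounds in 5–6 pt series (factor 3.333, top 20 or 10 μM final). Values are normalized to DMSO (neutral) and 20 μM reference A1 (100%), from sigmoidal fits.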
(Cellular ATP, detected with luciferase, serves as a proxy for viable cell number.)

Assay [2] relates to primary human T-cells. Kind of assay: IL2 secretion measurements (24 h, CD3-stimulated T-cells, PBS counter screen). The settings on record: for Emax IL2 (% activation): CD3 condition, normalised to DMSO (neutral) and 20 μM reference compound A1 = 100%; for pEC50: Homo sapiens, T-cell, CD3-stimulated primary human T-cells, IL2 secretion, fitted sigmoidal curve, read-out: Tcell IL2 CD3 EC50. The assay is classed as cell-based. The procedure, abridged: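 IL-2 secretion was measured by ProQuantum or ELISA after 24 h culture of expanded human T-cells with compound, on CD3-antibody-coated plates or PBS counter-screen plates. Dosing used 5–6 points from a 20 or 10 μM final top at 3.333-fold steps in 0.2% DMSO. EC50/Emax were scaled between DMSO and 20 μM reference A1.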
Background: The purpose of a counterscreen is to sort out artefacts and off-target activity.

As to `CC(C)(C#N)c1nnc(-c2ccc3c(c2)N(Cc2ccc(-c4ccc(C(F)(F)F)cc4)cc2)C(=O)[C@@H](N)CS3(=O)=O)o1` [Example 46], in the assay on primary human T-cells [1], the “Emax proliferation (% activation)” value amounted to 94 % activation and the pEC50 is 6.94. In addition, in the assay with primary human T-cells [2], the “Emax IL2 (% activation)” value is reported as 263 % activation and the pEC50 was 6.48.

On to `COCCN1CC(c2nnc(-c3ccc4c(c3)N(Cc3ccc(-c5ccc(OC)cc5)cc3)C(=O)[C@@H](N)CS4(=O)=O)o2)CC(F)(F)C1` (stereo partly drawn) [Example 183, (3R)-3-amino-7-[5-[5,5-difluoro-1-(2-methoxyethyl)-3-piperidyl]-1,3,4-oxadiazol-2-yl]-5-[[4-(4-methoxyphenyl)phenyl]methyl]-1,1-dioxo-2,3-dihydro-1λ^6,5-benzothiazepin-4-one], for which, in the assay with primary human T-cells [1], the “Emax proliferation (% activation)” value was determined as 156 % activation and the pEC50 is 5.77. Moreover, in the assay with primary human T-cells [2], the “Emax IL2 (% activation)” value is 69 % activation and the pEC50 is 5.19.

Regarding `CC(C)(C)c1nnc(-c2ccc3c(c2)N(Cc2ccc(-c4nc(C(F)(F)F)co4)cc2)C(=O)[C@@H](N)CS3(=O)=O)o1` [Example 89, (3R)-3-amino-7-(5-tert-butyl-1,3,4-oxadiazol-2-yl)-1,1-dioxo-5-[[4-[4-(trifluoromethyl)oxazol-2-yl]phenyl]methyl]-2,3-dihydro-1λ^6,5-benzothiazepin-4-one], in the assay on primary human T-cells [1], the “Emax proliferation (% activation)” value was determined as 153 % activation and the pEC50 was 6.69. Further, in the assay with primary human T-cells [2], the “Emax IL2 (% activation)” value came out at 182 % activation and the pEC50 is 6.42.

Turning to `CCN1CC(c2nnc(-c3ccc4c(c3)N(Cc3ccc(-c5noc(C(C)(C)C)n5)cc3)C(=O)[C@@H](N)CS4(=O)=O)o2)CC(F)(F)C1` (stereo partly drawn) [Example 181, (3R)-3-amino-5-[[4-(5-tert-butyl-1,2,4-oxadiazol-3-yl)phenyl]methyl]-7-[5-(1-ethyl-5,5-difluoro-3-piperidyl)-1,3,4-oxadiazol-2-yl]-1,1-dioxo-2,3-dihydro-1λ^6,5-benzothiazepin-4-one], in the assay with primary human T-cells [1], the “Emax proliferation (% activation)” value is recorded as 105 % activation and the pEC50 is 6.14. In addition, in the assay with primary human T-cells [2], the “Emax IL2 (% activation)” value turned out to be 66 % activation and the pEC50 is 5.16.

With `CC(C)(C)c1nnc(-c2ccc3c(c2)N(Cc2ccc(-n4cc(C(F)(F)F)cn4)cc2)C(=O)[C@@H](N)CS3(=O)=O)o1` [Example 25, (3R)-3-amino-7-(5-tert-butyl-1,3,4-oxadiazol-2-yl)-1,1-dioxo-5-[[4-[4-(trifluoromethyl)pyrazol-1-yl]phenyl]methyl]-2,3-dihydro-1λ^6,5-benzothiazepin-4-one], in the assay on primary human T-cells [1], the “Emax proliferation (% activation)” value was 131 % activation and the pEC50 is 5.53. Moreover, in the assay with primary human T-cells [2], the “Emax IL2 (% activation)” value turned out to be 137 % activation and the pEC50 was 6.22.

Turning to `N[C@H]1CS(=O)(=O)c2ccc(-c3nnc(N4CCOC(C(F)(F)F)C4)o3)cc2N(Cc2ccc(-c3ccc(C(F)(F)F)cn3)cc2)C1=O` (stereo partly drawn) [Example 75, (3R)-3-amino-1,1-dioxo-7-[5-[2-(trifluoromethyl)morpholin-4-yl]-1,3,4-oxadiazol-2-yl]-5-[[4-[5-(trifluoromethyl)-2-pyridyl]phenyl]methyl]-2,3-dihydro-1λ^6,5-benzothiazepin-4-one], in the assay with primary human T-cells [1], the “Emax proliferation (% activation)” value was 115 % activation and the pEC50 was 5.92. In the assay with primary human T-cells [2], the “Emax IL2 (% activation)” value is 140 % activation and the pEC50 is 5.59.

The values above are taken from US20260138976A1 (Hoffmann-La Roche Inc., priority 2022, published 2026).
